Source: patent publication US4443246A, “Herbicidal pyridyl-ethoxy-phenyl urea derivatives” (Takeda Chemical Industries, Ltd., priority 1981, dated 1984)

Tests used:
weeds = details: prior art, in words; cited from earlier work
Corn = assay: Phytotoxicity to crop (corn), foliar pot test; format: in vivo, Zea mays L.; details: 14 days after foliar spray
Experimental: 900 cm^2 -Plastic pots are packed with crop-filed soil and sown with seeds of Red root pigweed (Amaranthus retroflexus L.), Purple lambsquarter (Chenopodium album (L.) var. centrorubrum Makino), Oriental smartweed, (Polygonum Blumei Meisn.), Common purslane (Portulaca oleracea L.), Tall morningglory (Ipomoea purpurea (L.) Roth), Cocklebur (Xanthium strumarium L.), Velvetleaf (Abutilon theophrasti Medic.), Jimson weed (Datura stramonium L.) and Corn (Zea mays L.)
These test plants are grown in a greenhouse for 9-14 days. When the true leaves sprouted, these pots are placed in a chamber of 1000 cm^2, where 10 ml each of solutions each containing a given weight of the test compound is applied to each plant from the above with a small spraygun so that each drug solution is applied to leaves and stalks of the respective plants homogeneously. These pots are then left standing in the greenhouse for 14 days. Then, the above-ground portions of each of the thus treated plants, which have remained non-withering, are collected by cutting, followed by weighing while they are fresh.
The non-withering ratio is calculated on the basis of the corresponding weight of the control (non-treated) plants as 100%. The phytotoxicity and herbicidal effect of the test compound are evaluated on the basis of the following criteria. The test solution is prepared by dissolving the test compound of a given weight in 1 ml of acetone containing 1% of a surface-active agent, Tween 20® (Kao Atlas Co., Japan), which is diluted with deionized water to make the total volume to be 10 ml.
To dissolve or disperse the test compound completely in the acetone, stirring by means of super-sonic wave is employed.
Phytotoxicity to crop (corn) is indicated with the following indexes:
(The indexes 0 and 1 to crop denote the test compound can be practically applicable to crop.)

Toxicity to fishes (TLm) = details: in vivo
[1] = Toxicity to mammals (LD50, orally in mice); details: mouse, in vivo, po

| Structure (SMILES) | herbicidal activity (weeds) | Phytotoxicity Corn (Corn; Application rate 10) | Phytotoxicity Corn (Corn; Application rate 20) | LC50 (Toxicity to fishes (TLm)) [µg/mL] | LD50 [1] [mg/kg] |
| --- | --- | --- | --- | --- | --- |
| CN(C)C(=O)Nc1ccc(Oc2ccc(Cl)cc2)cc1 [chloroxuron, N'-[4-(4-chlorophenoxy)phenyl]-N,N-dimethylurea] | have herbicidal activity |  |  |  |  |
| CON(C)C(=O)Nc1ccc(OCCc2cccc(C)n2)cc1 [Compound No. 3, N-methoxy-N-methyl-N'-[4-[2-(6-methyl-2-pyridyl)ethoxy]phenyl]urea] |  | 1 (Negligible 0.1 to 12.5) | 1 (Negligible 0.1 to 12.5) |  |  |
| CCc1ccc(CCOc2ccc(NC(=O)N(C)C)cc2)nc1 [Compound No. 2, N,N-dimethyl-N'-[4-[2-(5-ethyl-2-pyridyl)ethoxy]phenyl]urea] |  | 1 (Negligible 0.1 to 12.5) | 1 (Negligible 0.1 to 12.5) |  |  |
| Cc1cccc(CCOc2ccc(NC(=O)N(C)C)cc2)n1 [Compound No. 1, N,N-dimethyl-N'-[4-[2-(6-methyl-2-pyridyl)ethoxy]phenyl]urea] |  | 0 (None 0) | 0 (None 0) | ≥ 10 | ≥ 300 |
